Results reported in patent publication US10723711B2, “1,1,1-trifluoro-3-hydroxypropan-2-yl carbamate derivatives and 1,1,1-trifluoro-4-hydroxybutan-2-yl carbamate derivatives as MAGL inhibitors” (PFIZER INC., priority 2015, dated 2020).
Where two headings read alike, the source gives them in different places. Blank lines part the entries; values can stand above or below the molecule they belong to.

Columns and labels:
human recombinant FAAH = biological target: T1, human recombinant FAAH (Homo sapiens, UniProt O00519); experiment: FAAH inhibition enzymatic assay, fluorescent substrate Arachidonoyl-AMC, 30 minute incubation; format: biochemical; conditions: T = 30 min (30 minute incubation); geometric mean of 2-4 determinations unless otherwise indicated
T1 construct: purchased Cayman 10010183
T1 sequence (O00519 1-579): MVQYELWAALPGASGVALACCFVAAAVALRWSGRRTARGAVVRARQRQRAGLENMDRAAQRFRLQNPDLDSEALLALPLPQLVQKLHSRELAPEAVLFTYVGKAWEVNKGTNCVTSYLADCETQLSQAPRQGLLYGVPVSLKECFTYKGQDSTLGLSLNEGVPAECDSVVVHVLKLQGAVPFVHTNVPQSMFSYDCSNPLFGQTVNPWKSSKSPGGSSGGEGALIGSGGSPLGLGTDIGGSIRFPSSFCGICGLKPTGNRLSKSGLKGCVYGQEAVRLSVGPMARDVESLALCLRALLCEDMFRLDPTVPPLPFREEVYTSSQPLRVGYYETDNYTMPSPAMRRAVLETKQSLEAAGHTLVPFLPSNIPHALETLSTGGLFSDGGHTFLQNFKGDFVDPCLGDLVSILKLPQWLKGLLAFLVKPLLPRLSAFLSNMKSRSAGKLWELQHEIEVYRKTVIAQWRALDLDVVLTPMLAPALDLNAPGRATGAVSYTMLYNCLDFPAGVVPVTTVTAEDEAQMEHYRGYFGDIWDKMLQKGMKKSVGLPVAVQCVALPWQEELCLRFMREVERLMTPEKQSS

[1] = biological target: T2, human recombinant Monoacylglycerol Lipase (Homo sapiens, UniProt Q99685); experiment: MAGL inhibition enzymatic assay, fluorogenic substrate 7-HCA, IC50 at T=0 min or after 30 minute incubation (T=30 min); format: biochemical; conditions: geometric mean of 2-4 determinations unless otherwise indicated
T2 sequence (Q99685 1-303): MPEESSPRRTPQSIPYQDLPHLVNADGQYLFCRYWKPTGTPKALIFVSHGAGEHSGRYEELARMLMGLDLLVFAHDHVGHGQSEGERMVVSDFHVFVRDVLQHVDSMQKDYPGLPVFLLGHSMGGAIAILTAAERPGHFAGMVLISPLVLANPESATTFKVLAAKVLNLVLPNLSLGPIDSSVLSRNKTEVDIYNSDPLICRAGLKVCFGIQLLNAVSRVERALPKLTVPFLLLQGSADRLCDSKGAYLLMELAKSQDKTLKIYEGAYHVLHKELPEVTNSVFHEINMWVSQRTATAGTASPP
Procedure: An equal volume of 7-HCA in assay buffer with 10% DMSO was added either immediately (T=0 min) or after a 30 minute incubation (T=30 min) to initiate the reaction. […] After these dilutions, the final concentration of the test compound ranged from 3 μM to 0.03 nM. […] IC50 values were generated based on a four parameter fit model using ABASE software from IDBS.

[2] = Prodrug in vivo pharmacokinetics in rats after intravenous administration (LC-MS-MS of prodrug and parent); conditions: Wistar Hann rats; for Cmax: Wistar Hann, rat, iv
[3] = Prodrug in vivo pharmacokinetics in dogs after intravenous administration (LC-MS-MS of prodrug and parent); conditions: Beagle dogs
[4] = biological target: T2, human recombinant Monoacylglycerol Lipase; experiment: MAGL inactivation, enzyme progress curves, kinact/KI; format: biochemical; conditions: from enzyme progress curves, T = 0 min protocol; geometric mean of 2-4 determinations unless otherwise indicated
Method in brief: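 Human recombinant MAGL ([…]) with compound, 7-HCA substrate (final 5 μM) added immediately (T=0 min), in pH 7.4 HEPES buffer with 0.1% Triton X-100 and 25% glycerin. Fluorescence (Ex/Em 340/465) was read every minute over 60 min, giving progress curves at decreasing compound concentrations (final 3 μM to 0.03 nM).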

[5] = T = 0 min (substrate added immediately), read-out: MAGL (T = 0 min) IC50
[6] = T = 30 min (30 minute incubation), read-out: MAGL (T = 30 min) IC50
[7] = Example 9 (parent) in plasma, IV Example 31 at 1.48 mg/kg, Mean
[8] = Example 9 (parent) in plasma, IV Example 31 at 1.48 mg/kg, Rat 01
[9] = Example 9 (parent) in plasma, IV Example 31 at 1.48 mg/kg, Rat 02
[10] = Example 9 (parent) in plasma, IV Example 31 at 0.7 mg/kg, Dog 01
[11] = Example 9 (parent) in plasma, IV Example 31 at 0.7 mg/kg, Dog 02
[12] = Example 9 (parent) in plasma, IV Example 31 at 0.7 mg/kg, Mean
[13] = Example 6 (parent) in plasma, IV Example 32 at 2 mg/kg, Mean
[14] = Example 6 (parent) in plasma, IV Example 32 at 2 mg/kg, Rat 03
[15] = Example 6 (parent) in plasma, IV Example 32 at 2 mg/kg, Rat 04
[16] = Example 6 (parent) in plasma, IV Example 32 at 1 mg/kg, Dog 03
[17] = Example 6 (parent) in plasma, IV Example 32 at 1 mg/kg, Dog 04
[18] = Example 6 (parent) in plasma, IV Example 32 at 1 mg/kg, Mean

Structure (SMILES): O=C(O[C@H](CO)C(F)(F)F)N1CCC2(CC1)C[C@@H](NS(=O)(=O)c1ccccc1)CO2 [Example 9, (2R)-1,1,1-Trifluoro-3-hydroxypropan-2-yl (3R)-3-[(phenylsulfonyl)amino]-1-oxa-8-azaspiro[4.5]decane-8-carboxylate]
IC50 (human recombinant FAAH): > 30000 nM | IC50 [1, 5]: 40 nM | IC50 [1, 6]: 4 nM | % AUC Extrap [2, 7]: 2.46% | AUC [2, 7]: 146 ng·h/mL | AUC Extrap [2, 7]: 150 ng·h/mL | Rate Constant [2, 7]: 0.500 h⁻¹ | Tmax [2, 7]: 4.98 min | T½ [2, 7]: 84.6 min | % AUC Extrap [2, 8]: 2.08% | AUC [2, 8]: 118 ng·h/mL | AUC Extrap [2, 8]: 121 ng·h/mL | Rate Constant [2, 8]: 0.560 h⁻¹ | Tmax [2, 8]: 4.98 min | T½ [2, 8]: 74.4 min | % AUC Extrap [2, 9]: 2.83% | AUC [2, 9]: 173 ng·h/mL | AUC Extrap [2, 9]: 178 ng·h/mL | Rate Constant [2, 9]: 0.440 h⁻¹ | Tmax [2, 9]: 4.98 min | T½ [2, 9]: 94.2 min | Cmax ([2]; in vivo, 1.48 mg/kg, Example 9 (parent) in plasma, IV Example 31 at 1.48 mg/kg, Mean): 316 ng/mL | Cmax ([2]; in vivo, 1.48 mg/kg, Example 9 (parent) in plasma, IV Example 31 at 1.48 mg/kg, Rat 01): 253 ng/mL | Cmax ([2]; in vivo, 1.48 mg/kg, Example 9 (parent) in plasma, IV Example 31 at 1.48 mg/kg, Rat 02): 378 ng/mL | AUC [3, 10]: 1350 ng·h/mL | AUC Extrap [3, 10]: 1550 ng·h/mL | Tmax [3, 10]: 15 min | T½ [3, 10]: 642 min | AUC [3, 11]: 1460 ng·h/mL | AUC Extrap [3, 11]: 1560 ng·h/mL | Tmax [3, 11]: 4.98 min | T½ [3, 11]: 482 min | AUC [3, 12]: 1410 ng·h/mL | AUC Extrap [3, 12]: 1560 ng·h/mL | Tmax [3, 12]: 10.2 min | T½ [3, 12]: 562 min | MAGL kinact/KI [4]: 8588 1/s per M

IC50 (human recombinant FAAH): > 30000 nM | IC50 [1, 5]: 83 nM | IC50 [1, 6]: 7 nM | % AUC Extrap [2, 13]: 3.46% | AUC [2, 13]: 158 ng·h/mL | AUC Extrap [2, 13]: 162 ng·h/mL | Rate Constant [2, 13]: 2.22 h⁻¹ | Tmax [2, 13]: 3.48 min | T½ [2, 13]: 20.5 min | % AUC Extrap [2, 14]: 6.04% | AUC [2, 14]: 102 ng·h/mL | AUC Extrap [2, 14]: 109 ng·h/mL | Rate Constant [2, 14]: 2.86 h⁻¹ | Tmax [2, 14]: 4.98 min | T½ [2, 14]: 14.5 min | % AUC Extrap [2, 15]: 0.880% | AUC [2, 15]: 213 ng·h/mL | AUC Extrap [2, 15]: 215 ng·h/mL | Rate Constant [2, 15]: 1.57 h⁻¹ | Tmax [2, 15]: 1.98 min | T½ [2, 15]: 26.5 min | Cmax ([2]; plasma, 2 mg/kg, Example 6 (parent) in plasma, IV Example 32 at 2 mg/kg, Mean): 309 ng/mL | Cmax ([2]; plasma, 2 mg/kg, Example 6 (parent) in plasma, IV Example 32 at 2 mg/kg, Rat 03): 234 ng/mL | Cmax ([2]; plasma, 2 mg/kg, Example 6 (parent) in plasma, IV Example 32 at 2 mg/kg, Rat 04): 384 ng/mL | AUC [3, 16]: 591 ng·h/mL | AUC Extrap [3, 16]: 595 ng·h/mL | Tmax [3, 16]: 4.98 min | T½ [3, 16]: 246 min | AUC [3, 17]: 705 ng·h/mL | AUC Extrap [3, 17]: 710 ng·h/mL | Tmax [3, 17]: 4.98 min | T½ [3, 17]: 322 min | AUC [3, 18]: 648 ng·h/mL | AUC Extrap [3, 18]: 653 ng·h/mL | Tmax [3, 18]: 4.98 min | T½ [3, 18]: 284 min | MAGL kinact/KI [4]: 13406 1/s per M | melting point: 132 °C
Structure (SMILES): O=C(O[C@H](CO)C(F)(F)F)N1CCC2(CC1)CN(S(=O)(=O)c1ccc(F)cc1)CCO2 [Example 6, (2R)-1,1,1-Trifluoro-3-hydroxypropan-2-yl 4-[(4-fluorophenyl)sulfonyl]-1-oxa-4,9-diazaspiro[5.5]undecane-9-carboxylate]
